Experimental data from patent US20150105252A1, “SUBSTITUTED PYRAZOLES AS HERBICIDES” (E I DU PONT DE NEMOURS AND COMPANY, priority 2013, published 2015).

Columns and labels:
barnyardgrass [1] = test: Test A postemergence; type: in vivo, Echinochloa crus-galli
Summary of the method: (§1)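 Visual injury rating, 0–100 (0 no effect, 100 complete control), vs untreated controls ~10 days after treatment in greenhouse. Pre: directed soil spray on seeded loam/sand. Post: 2–10 cm plants, 1–2 leaf stage. Formulation: non-phytotoxic solvent mix + surfactant.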

morningglory [2] = test: Test A postemergence; type: in vivo, Ipomoea spp.
Summary of the method: as §1

corn [3] = test: Test A postemergence; type: in vivo, Zea mays
Summary of the method: as §1

crabgrass, large [4] = test: Test A preemergence; type: in vivo, Digitaria sanguinalis; settings: preemergence; for Crabgrass, Large plant response rating (0 to 100 scale): 125 g ai/ha, visual injury approx. 10 days after treatment; for Crabgrass, Large plant response rating: 500 g ai/ha, visual injury after approx. 10 days, 0 to 100 scale (0 no effect, 100 complete control)
Summary of the method: as §1

morningglory [5] = test: Test A preemergence; type: in vivo, Ipomoea spp.; settings: preemergence; for Morningglory plant response rating (0 to 100 scale): 125 g ai/ha, visual injury approx. 10 days after treatment
Summary of the method: as §1

velvetleaf [6] = test: Test A postemergence; type: in vivo, Abutilon theophrasti
Summary of the method: as §1

sedge, umbrella = test: Test B flood; type: in vivo, Cyperus difformis; settings: 250 g ai/ha, visual rating on 0 to 100 scale (0 no effect, 100 complete control), 13 to 15 days
Summary of the method: (§2)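 Visual ratings (0 = no effect, 100 = complete control) versus untreated controls were taken 13–15 days after treatment of greenhouse plants. Treatment was added to paddy water held at 3 cm depth on 2-leaf-stage seedlings.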

ducksalad = test: Test B flood; type: in vivo, Heteranthera limosa; settings: 250 g ai/ha, visual rating on 0 to 100 scale (0 no effect, 100 complete control), 13 to 15 days
Protocol: (§3) Seeds selected from rice (Oryza sativa), sedge, umbrella (small-flower umbrella sedge Cyperus difformis), ducksalad (Heteranthera limosa), and barnyardgrass (Echinochloa crus-galli) were grown to the 2-leaf stage for testing. At time of treatment, test pots were flooded to 3 cm above the soil surface, treated by application of test compounds directly to the paddy water, and then maintained at that water depth for the duration of the test.
(§4) Treated plants and controls were maintained in a greenhouse for 13 to 15 days, after which time all species were compared to controls and visually evaluated. Plant response ratings, summarized in Table B, are based on a scale of 0 to 100 where 0 is no effect and 100 is complete control. A dash (-) response means no test result.

pigweed [7] = test: Test A postemergence; type: in vivo, Amaranthus retroflexus
Summary of the method: as §1

corn [8] = test: Test A preemergence; type: in vivo, Zea mays; settings: preemergence; for Corn plant response rating (0 to 100 scale): 125 g ai/ha, visual injury approx. 10 days after treatment; for Corn plant response rating: 500 g ai/ha, visual injury after approx. 10 days, 0 to 100 scale (0 no effect, 100 complete control)
Summary of the method: as §1

barnyardgrass [9] = test: Test A preemergence; type: in vivo, Echinochloa crus-galli; settings: preemergence
Summary of the method: as §1

velvetleaf [10] = test: Test A preemergence; type: in vivo, Abutilon theophrasti; settings: preemergence; for Velvetleaf plant response rating (0 to 100 scale): 125 g ai/ha, visual injury approx. 10 days after treatment
Summary of the method: as §1

pigweed [11] = test: Test A preemergence; type: in vivo, Amaranthus retroflexus; settings: preemergence; for Pigweed plant response rating (0 to 100 scale): 125 g ai/ha, visual injury approx. 10 days after treatment
Summary of the method: as §1

foxtail, giant [12] = test: Test A postemergence; type: in vivo, Setaria faberii
Summary of the method: as §1

barnyardgrass [13] = test: Test B flood; type: in vivo, Echinochloa crus-galli; settings: 250 g ai/ha, visual rating on 0 to 100 scale (0 no effect, 100 complete control), 13 to 15 days
Summary of the method: as §2

rice = test: Test B flood; type: in vivo, Oryza sativa; settings: 250 g ai/ha, visual rating on 0 to 100 scale (0 no effect, 100 complete control), 13 to 15 days
Protocol: as §3, §4

wheat [14] = test: Test A postemergence; type: in vivo, Triticum aestivum
Summary of the method: as §1

foxtail, giant [15] = test: Test A preemergence; type: in vivo, Setaria faberii; settings: preemergence; for Foxtail, Giant plant response rating (0 to 100 scale): 125 g ai/ha, visual injury approx. 10 days after treatment; for Foxtail, Giant plant response rating: 500 g ai/ha, visual injury after approx. 10 days, 0 to 100 scale (0 no effect, 100 complete control)
Summary of the method: as §1

wheat [16] = test: Test A preemergence; type: in vivo, Triticum aestivum; settings: preemergence; for Wheat plant response rating (0 to 100 scale): 125 g ai/ha, visual injury approx. 10 days after treatment
Summary of the method: as §1

crabgrass, large [17] = test: Test A postemergence; type: in vivo, Digitaria sanguinalis
Summary of the method: as §1

[18] = Postemergence, 125 g ai/ha, 0 to 100 scale, 0 no effect, 100 complete control
[19] = Postemergence, 500 g ai/ha, 0 to 100 scale (0 no effect, 100 complete control)
[20] = 500 g ai/ha, visual injury after approx. 10 days, 0 to 100 scale (0 no effect, 100 complete control)
[21] = postemergence, 125 g ai/ha, about 10 days, visual rating on 0 to 100 scale (0 no effect, 100 complete control)

| SMILES | Barnyardgrass plant response rating (barnyardgrass [1]; [19]) | Morningglory plant response rating (morningglory [2]; [19]) | Corn plant response rating (corn [3]; [19]) | Crabgrass, Large plant response rating (0 to 100 scale) (crabgrass, large [4]) | Crabgrass, Large plant response rating (crabgrass, large [4]) | Morningglory plant response rating (0 to 100 scale) (morningglory [5]) | Velvetleaf plant response rating (velvetleaf [6]; [19]) | Plant response rating, Sedge, Umbrella (sedge, umbrella) | Plant response rating, Ducksalad (ducksalad) | Pigweed plant response rating (pigweed [7]; [19]) | Corn plant response rating (0 to 100 scale) (corn [8]) | Corn plant response rating (corn [8]) | Barnyardgrass plant response rating (barnyardgrass [9]; [20]) | Velvetleaf plant response rating (0 to 100 scale) (velvetleaf [10]) | Pigweed plant response rating (0 to 100 scale) (pigweed [11]) | Foxtail, Giant plant response rating (foxtail, giant [12]; [19]) | Plant response rating, Barnyardgrass (barnyardgrass [13]) | Plant response rating, Rice (rice) | Wheat plant response rating (wheat [14]; [19]) | Foxtail, Giant plant response rating (0 to 100 scale) (foxtail, giant [15]) | also measured |
| --- | --- | --- | --- | --- | --- | --- | --- | --- | --- | --- | --- | --- | --- | --- | --- | --- | --- | --- | --- | --- | --- |
| CCCNC(=O)c1cc(CC)n(Oc2cccc(OC(F)(F)F)c2)n1 [Compound 219] | 40 | 70 | 20 | 40 | 90 | 0 | 90 | 75 | 30 | 60 | 0 | 0 | 20 | 0 | 0 | 60 | 0 | 0 | 10 | 0 | Barnyardgrass plant response rating (barnyardgrass [1]; [18]): 10; Morningglory plant response rating (morningglory [2]; [18]): 10; Corn plant response rating (corn [3]; [18]): 10; Velvetleaf plant response rating (velvetleaf [6]; [18]): 0; Pigweed plant response rating (pigweed [7]; [18]): 20; Barnyardgrass plant response rating (0 to 100 scale, 0 is no effect, 100 is complete control) (barnyardgrass [9]; 125 g ai/ha, visual injury approx. 10 days after treatment): 0; Foxtail, Giant plant response rating (foxtail, giant [12]; [18]): 20; Wheat plant response rating (wheat [14]; [18]): 0; Foxtail, Giant plant response rating (foxtail, giant [15]): 20; Wheat plant response rating (0 to 100 scale) (wheat [16]): 0; Crabgrass, Large plant response rating (crabgrass, large [17]; [18]): 20; Crabgrass, Large plant response rating (crabgrass, large [17]; [19]): 70 |
| O=C(NCC(F)(F)F)c1cc(Br)n(Cc2cccc(C(F)(F)F)c2)n1 [Compound 161] | 10 | 50 | 10 | 10 | 70 | 0 | 50 | 0 | 0 | 70 | 0 | 0 | 0 | 0 | 10 | 20 | 0 | 0 | 0 | 0 | Barnyardgrass plant response rating (barnyardgrass [1]; [21]): 10; Morningglory plant response rating (morningglory [2]; [21]): 30; Corn plant response rating (corn [3]; [21]): 0; Morningglory plant response rating (morningglory [5]; [20]): 0; Velvetleaf plant response rating (velvetleaf [6]; [21]): 30; Pigweed plant response rating (pigweed [7]; [21]): 40; Barnyardgrass plant response rating (barnyardgrass [9]; 125 g ai/ha, visual injury, 0 to 100 scale, approx. 10 days): 0; Velvetleaf plant response rating (velvetleaf [10]; [20]): 0; Pigweed plant response rating (pigweed [11]; [20]): 80; Foxtail, Giant plant response rating (foxtail, giant [12]; [21]): 10; Wheat plant response rating (wheat [14]; [21]): 0; Foxtail, Giant plant response rating (foxtail, giant [15]): 20; Wheat plant response rating (0 to 100 scale) (wheat [16]): 0; Wheat plant response rating (wheat [16]; [20]): 0; Crabgrass, Large plant response rating (crabgrass, large [17]; [19]): 30; Crabgrass, Large plant response rating (crabgrass, large [17]; [21]): 20 |
